# Reference: ChEMBL document CHEMBL1137686, “Synthesis and anticonvulsant activity of new N-[(4-arylpiperazin-1-yl)-alkyl] derivatives of 3-phenyl-pyrrolidine-2,5-dione” (Eur J Med Chem, 2009)
# Activity calls are given as the source filed them. No cut-off for these calls is given here.
# How the values were obtained:
# Mus musculus [1] = test: Neurotoxicity in ip dosed CF1 albino mouse assessed as ability to maintain equilibrium for 1 min on […] after 4 hrs by rotarod test; type: toxicity, organism-based; conditions: in vivo
# Mus musculus [2] = test: Neurotoxicity in ip dosed CF1 albino mouse assessed as ability to maintain equilibrium for 1 min on […] after 0.5 hrs by rotarod test; type: toxicity, organism-based; conditions: in vivo
# Mus musculus [3] = test: Anticonvulsant activity in ip dosed CF1 albino mouse assessed as inhibition of maximal electroshock-induced seizures after 4 hrs; type: functional
# [4] = Neurotoxicity in ip dosed CF1 albino mouse assessed as ability to maintain equilibrium for 1 min on […] by rotarod test; type: toxicity, organism-based; conditions: in vivo
# Mus musculus [5] = species on record: Mus musculus; test: Protective index, ratio of TD50 for neurotoxicity in CF1 albino mouse to ED50 for inhibition of maximal electroshock-induced seizures in CF1 albino mouse; type: functional
# Rattus norvegicus [6] = species on record: Rattus norvegicus; test: Protective index, ratio of TD50 for neurotoxicity in rat to ED50 for inhibition of maximal electroshock-induced seizures in rat; type: functional
# Rattus norvegicus [7] = test: Anticonvulsant activity against maximal electroshock-induced seizures in po dosed rat assessed as time to peak effect; type: functional
# Mus musculus [8] = test: Anticonvulsant activity in ip dosed CF1 albino mouse assessed as inhibition of subcutaneous pentylenetetrazole-induced seizures; type: functional
# Mus musculus [9] = test: Anticonvulsant activity in ip dosed CF1 albino mouse assessed as inhibition of maximal electroshock-induced seizures; type: functional
# Rattus norvegicus [10] = test: Anticonvulsant activity in po dosed rat assessed as inhibition of subcutaneous pentylenetetrazole-induced seizures; type: functional
# Mus musculus [11] = test: Anticonvulsant activity against maximal electroshock-induced seizures in ip dosed CF1 albino mouse assessed as time to peak effect; type: functional
# [12] = Neurotoxicity in po dosed rat assessed as ability to maintain equilibrium for 1 min on […] by rotarod test; type: toxicity, organism-based; conditions: in vivo
# Mus musculus [13] = test: Anticonvulsant activity in ip dosed CF1 albino mouse assessed as inhibition of maximal electroshock-induced seizures after 0.5 hrs; type: functional
# Mus musculus [14] = test: Anticonvulsant activity in CF1 albino mouse assessed as protection against maximal electroshock-induced seizures at 30 mg/kg, po after 0.5 hrs; type: functional
# Mus musculus [15] = test: Neurotoxicity in CF1 albino mouse assessed as ability to maintain equilibrium for 1 min on […] at 300 mg/kg, ip after 0.5 hrs by rotarod test; type: toxicity, organism-based; design: dose 300 mg/kg, route intraperitoneal; conditions: in vivo
# Mus musculus [16] = test: Neurotoxicity in CF1 albino mouse assessed as motor impairment at 30 mg/kg, po after 0.25 hrs by rotarod test; type: toxicity, organism-based; design: dose 30 mg/kg, route oral; conditions: in vivo
# Mus musculus [17] = test: Neurotoxicity in CF1 albino mouse assessed as motor impairment at 30 mg/kg, ip after 0.25 hrs by rotarod test; type: toxicity, organism-based; design: dose 30 mg/kg, route intraperitoneal; conditions: in vivo
# Mus musculus [18] = test: Anticonvulsant activity in CF1 albino mouse assessed as protection against maximal electroshock-induced seizures at 30 mg/kg, po after 1 hr; type: functional
# Mus musculus [19] = test: Anticonvulsant activity in CF1 albino mouse assessed as protection against maximal electroshock-induced seizures at 30 mg/kg, ip after 0.25 hrs; type: functional
# Mus musculus [20] = test: Neurotoxicity in CF1 albino mouse assessed as ability to maintain equilibrium for 1 min on […] at 300 mg/kg, ip after 4 hrs by rotarod test; type: toxicity, organism-based; design: dose 300 mg/kg, route intraperitoneal; conditions: in vivo
# Mus musculus [21] = test: Neurotoxicity in CF1 albino mouse assessed as motor impairment at 30 mg/kg, ip after 0.5 hrs by rotarod test; type: toxicity, organism-based; design: dose 30 mg/kg, route intraperitoneal; conditions: in vivo
# Mus musculus [22] = test: Neurotoxicity in CF1 albino mouse assessed as motor impairment at 30 mg/kg, po after 4 hrs by rotarod test; type: toxicity, organism-based; design: dose 30 mg/kg, route oral; conditions: in vivo
# Mus musculus [23] = test: Anticonvulsant activity in CF1 albino mouse assessed as protection against maximal electroshock-induced seizures at 30 mg/kg, po after 0.25 hrs; type: functional
# Mus musculus [24] = test: Neurotoxicity in CF1 albino mouse assessed as motor impairment at 30 mg/kg, po after 1 hr by rotarod test; type: toxicity, organism-based; design: dose 30 mg/kg, route oral; conditions: in vivo
# Mus musculus [25] = test: Neurotoxicity in CF1 albino mouse assessed as motor impairment at 30 mg/kg, ip after 2 hrs by rotarod test; type: toxicity, organism-based; design: dose 30 mg/kg, route intraperitoneal; conditions: in vivo
# Mus musculus [26] = test: Neurotoxicity in CF1 albino mouse assessed as motor impairment at 30 mg/kg, po after 2 hrs by rotarod test; type: toxicity, organism-based; design: dose 30 mg/kg, route oral; conditions: in vivo
# Mus musculus [27] = test: Anticonvulsant activity in CF1 albino mouse assessed as protection against maximal electroshock-induced seizures at 30 mg/kg, po after 4 hrs; type: functional
# Mus musculus [28] = test: Neurotoxicity in CF1 albino mouse assessed as motor impairment at 30 mg/kg, ip after 4 hrs by rotarod test; type: toxicity, organism-based; design: dose 30 mg/kg, route intraperitoneal; conditions: in vivo
# Mus musculus [29] = test: Anticonvulsant activity in CF1 albino mouse assessed as protection against maximal electroshock-induced seizures at 30 mg/kg, ip after 1 hr; type: functional
# Mus musculus [30] = test: Anticonvulsant activity in CF1 albino mouse assessed as protection against maximal electroshock-induced seizures at 30 mg/kg, ip after 4 hrs; type: functional
# Mus musculus [31] = test: Anticonvulsant activity in CF1 albino mouse assessed as protection against maximal electroshock-induced seizures at 30 mg/kg, ip after 0.5 hrs; type: functional
# Mus musculus [32] = test: Neurotoxicity in CF1 albino mouse assessed as motor impairment at 30 mg/kg, ip after 1 hr by rotarod test; type: toxicity, organism-based; design: dose 30 mg/kg, route intraperitoneal; conditions: in vivo
# Mus musculus [33] = test: Anticonvulsant activity in CF1 albino mouse assessed as protection against maximal electroshock-induced seizures at 30 mg/kg, po after 2 hrs; type: functional
# Mus musculus [34] = test: Anticonvulsant activity in CF1 albino mouse assessed as inhibition of maximal electroshock-induced seizures at 300 mg/kg, ip after 0.5 hrs; type: functional, organism-based; design: dose 300 mg/kg
# Mus musculus [35] = test: Neurotoxicity in CF1 albino mouse assessed as motor impairment at 30 mg/kg, po after 0.5 hrs by rotarod test; type: toxicity, organism-based; design: dose 30 mg/kg, route oral; conditions: in vivo
# Mus musculus [36] = test: Anticonvulsant activity in CF1 albino mouse assessed as protection against maximal electroshock-induced seizures at 30 mg/kg, ip after 2 hrs; type: functional
# Mus musculus [37] = test: Anticonvulsant activity in CF1 albino mouse assessed as inhibition of maximal electroshock-induced seizures at 300 mg/kg, ip after 4 hrs; type: functional, organism-based; design: dose 300 mg/kg
# Mus musculus [38] = test: Neurotoxicity in CF1 albino mouse assessed as ability to grasp rotarod at 300 mg/kg, ip after 0.5 hrs by rotarod test; type: toxicity, organism-based; design: dose 300 mg/kg, route intraperitoneal; conditions: in vivo
# Mus musculus [39] = test: Neurotoxicity in CF1 albino mouse assessed as muscle spasm at 300 mg/kg, po after 0.5 hrs by rotarod test; type: toxicity, organism-based, Muscle tissue; design: dose 300 mg/kg, route oral; conditions: in vivo
# Mus musculus [40] = test: Neurotoxicity in CF1 albino mouse assessed as death at 300 mg/kg, ip after 0.5 hrs by rotarod test; type: toxicity, organism-based; design: dose 300 mg/kg, route intraperitoneal; conditions: in vivo
# Mus musculus [41] = test: Neurotoxicity in CF1 albino mouse assessed as occurance of tremors at 300 mg/kg, ip after 0.5 hrs by rotarod test; type: toxicity, organism-based; design: dose 300 mg/kg, route intraperitoneal; conditions: in vivo
# Mus musculus [42] = test: Anticonvulsant activity in ip dosed mouse assessed as inhibition of maximal electroshock-induced seizures; type: functional
# Mus musculus [43] = test: Anticonvulsant activity in CF1 albino mouse assessed as inhibition of subcutaneous pentylenetetrazole-induced seizures at 300 mg/kg, ip after 4 hrs; type: functional, organism-based; design: dose 300 mg/kg
# Mus musculus [44] = test: Toxicity in CF1 albino mouse assessed as myoclonic jerks at 300 mg/kg, ip after 4 hrs; type: organism-based; design: dose 300 mg/kg, route intraperitoneal; conditions: in vivo
# Mus musculus [45] = test: Neurotoxicity in CF1 albino mouse assessed as occurance of tremors at 300 mg/kg, ip after 4 hrs by rotarod test; type: toxicity, organism-based; design: dose 300 mg/kg, route intraperitoneal; conditions: in vivo
# Mus musculus [46] = test: Toxicity in CF1 albino mouse assessed as myoclonic jerks at 100 mg/kg, ip after 4 hrs; type: organism-based; design: dose 100 mg/kg, route intraperitoneal; conditions: in vivo
# Mus musculus [47] = test: Anticonvulsant activity in CF1 albino mouse assessed as inhibition of subcutaneous pentylenetetrazole-induced seizures at 100 mg/kg, ip after 4 hrs; type: functional, organism-based; design: dose 100 mg/kg
structure (smiles),measurement,setting,value
O=C1NC(=O)C(c2ccccc2)(c2ccccc2)N1 [PHENYTOIN],Activity,Mus musculus [1],100 mg/kg
same,Activity,Mus musculus [2],100 mg/kg
same,Activity,Mus musculus [3],30 mg/kg
same,TD50 at 1 min,[4],41.2 mg/kg
same,Ratio TD50/ED50,Mus musculus [5],6.52
same,Ratio TD50/ED50,Rattus norvegicus [6],>21.6
same,Time,Rattus norvegicus [7],2 h
same,ED50,Mus musculus [8],> 500 mg/kg
same,ED50,Mus musculus [9],5.32 mg/kg
same,ED50,Rattus norvegicus [10],> 500 mg/kg
same,Time,Mus musculus [11],1 h
same,TD50 at 1 min,[12],> 500 mg/kg
same,Activity,Mus musculus [13],30 mg/kg
same,Activity,Mus musculus [14],Active
Cc1ccccc1C1CC(=O)N(CCN2CCN(c3cccc(Cl)c3)CC2)C1=O (stereo not given),Activity,Mus musculus [15],Non-toxic
same,Activity,Mus musculus [16],Non-toxic
same,Activity,Mus musculus [3],100 mg/kg
same,Activity,Mus musculus [17],Non-toxic
same,Activity,Mus musculus [18],25%
same,Activity,Mus musculus [19],inactive
same,Activity,Mus musculus [20],Non-toxic
same,Activity,Mus musculus [21],Non-toxic
same,Activity,Mus musculus [22],Non-toxic
same,Activity,Mus musculus [23],inactive
same,Activity,Mus musculus [24],Non-toxic
same,Activity,Mus musculus [25],Non-toxic
same,Activity,Mus musculus [26],Non-toxic
same,Activity,Mus musculus [27],50%
same,Activity,Mus musculus [28],Non-toxic
same,Activity,Mus musculus [29],inactive
same,Activity,Mus musculus [30],inactive
same,Activity,Mus musculus [31],inactive
same,Activity,Mus musculus [32],Non-toxic
same,Activity,Mus musculus [33],inactive
same,Activity,Mus musculus [14],inactive
same,Activity,Mus musculus [34],inactive
same,Activity,Mus musculus [35],Non-toxic
same,Activity,Mus musculus [36],inactive
COc1ccccc1N1CCN(CCN2C(=O)CC(c3ccccc3C(F)(F)F)C2=O)CC1 (stereo not given),Activity,Mus musculus [2],300 mg/kg
same,Activity,Mus musculus [20],Non-toxic
same,Activity,Mus musculus [37],inactive
same,Activity,Mus musculus [38],Toxic
same,Activity,Mus musculus [34],inactive
same,Activity,Mus musculus [39],Toxic
Cc1ccccc1C1CC(=O)N(CN2CCN(c3cccc(C(F)(F)F)c3)CC2)C1=O (stereo not given),Activity,Mus musculus [2],300 mg/kg
same,Activity,Mus musculus [16],50%
same,Activity,Mus musculus [40],Toxic
same,Activity,Mus musculus [3],30 mg/kg
same,Activity,Mus musculus [17],Toxic
same,Activity,Mus musculus [18],50%
same,Activity,Mus musculus [19]; route intraperitoneal,50%
same,Activity,Mus musculus [41],Toxic
same,Activity,Mus musculus [20],Non-toxic
same,Activity,Mus musculus [21],Toxic
same,Activity,Mus musculus [22],Non-toxic
same,Activity,Mus musculus [23],inactive
same,Activity,Mus musculus [24],Non-toxic
same,Activity,Mus musculus [26],Non-toxic
same,Activity,Mus musculus [27],50%
same,Activity,Mus musculus [28],Non-toxic
same,Activity,Mus musculus [29]; route intraperitoneal,100%
same,Activity,Mus musculus [30]; route intraperitoneal,50%
same,Activity,Mus musculus [31]; route intraperitoneal,50%
same,Activity,Mus musculus [13],30 mg/kg
same,Activity,Mus musculus [33],25%
same,Activity,Mus musculus [38],Toxic
same,Activity,Mus musculus [14],inactive
same,Activity,Mus musculus [35],25%
same,Activity,Mus musculus [36]; route intraperitoneal,50%
O=C1CC2(CCc3ccccc3C2)C(=O)N1CCCN1CCN(c2cccc(C(F)(F)F)c2)CC1 (stereo not given),ED50,"Mus musculus [42]; Mus musculus, ip",23 mg/kg
Cc1cccc(N2CCN(CCCN3C(=O)CC(c4ccccc4Cl)C3=O)CC2)c1 (stereo not given),Activity,Mus musculus [42],120 mg/kg
COc1ccccc1N1CCN(CN2C(=O)CC(c3ccccc3C(F)(F)F)C2=O)CC1 (stereo not given),Activity,Mus musculus [1],100 mg/kg
same,Activity,Mus musculus [2],100 mg/kg
same,Activity,Mus musculus [3],300 mg/kg
same,Activity,Mus musculus [43],Active
same,Activity,Mus musculus [44],Toxic
same,Activity,Mus musculus [45],Toxic
same,Activity,Mus musculus [46],Toxic
same,Activity,Mus musculus [13],300 mg/kg
same,Activity,Mus musculus [47],Active
